Data as given in US20250091989A1, “SMALL MOLECULE PROTEIN SYNTHESIS MODULATORS” (Interdict Bio, Inc., priority 2023, published 2025).

Assays:
KLE = experiment: Cell viability (CellTiter-Fluor), KLE; type: cell-based; settings: Homo sapiens, 24-72 hrs
Experimental: (§1) Count and dispense 2,000-10,000 cells per well (100 μL volume) in black 96-well tissue culture microplate and let cells adhere overnight. Add compound dissolved in 100% DMSO to each well as needed and incubate cells in standard culture conditions for 24-72 hrs. Final DMSO concentration in each well should be 0.1-0.5%. At the desired time point, gently aspirate compound containing media and replace with PBS to wash. Repeat wash step for 2 total washes. Remove PBS and add 100 μL CellTiter-Fluor reagent (Promega) reagent to each well. Seal plate and incubate 1 hr at room temperature with orbital shaking. Analyze fluorescence using plate reader to quantify viable cells compared with vehicle (DMSO) control.

MYC = experiment: In vitro transcription-translation (IVTT) reporter assay, MYC test sequence; type: biochemical; settings: HeLa S3 lysate, sfGFP/mCherry ratio, 2 hrs at 30° C.
In short: (§2)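 Coupled transcription-translation in HeLa S3 lysate with reporter plasmids encoding mCherry-P2A-3×FLAG-TEST-sfGFP behind an EMCV IRES. Compounds were half-log titrated (30 μM-0.1 μM in DMSO dilution plate) into master mix, then DNA was added. Reactions ran 2 hrs at 30° C, were PBS-quenched and read for fluorescence.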

LS411N = experiment: Cell viability (CellTiter-Fluor), LS411N; type: cell-based; settings: Homo sapiens, LS-411N, 24-72 hrs
Experimental: as §1

HCC38 = experiment: Cell viability (CellTiter-Fluor), HCC38; type: cell-based; settings: Homo sapiens, HCC38, 24-72 hrs
Experimental: as §1

MCF7 = experiment: Cell viability (CellTiter-Fluor), MCF7; type: cell-based; settings: Homo sapiens, MCF7, 24-72 hrs
Experimental: as §1

KATO-III = experiment: Cell viability (CellTiter-Fluor), KATO-III; type: cell-based; settings: Homo sapiens, 24-72 hrs
Experimental: as §1

ALK = experiment: In vitro transcription-translation (IVTT) reporter assay, ALK test sequence; type: biochemical; settings: HeLa S3 lysate, sfGFP/mCherry ratio, 2 hrs at 30° C.
In short: as §2

NCI-H1915 = experiment: Cell viability (CellTiter-Fluor), NCI-H1915; type: cell-based; settings: NCI-H1915, 24-72 hrs
Experimental: as §1

KRAS G12D = experiment: In vitro transcription-translation (IVTT) reporter assay, KRAS G12D test sequence; type: biochemical; settings: HeLa S3 lysate, sfGFP/mCherry ratio, 2 hrs at 30° C.
In short: as §2

MS751 = experiment: Cell viability (CellTiter-Fluor), MS751; type: cell-based; settings: MS751, 24-72 hrs
Experimental: as §1

HEK 293T = experiment: Cell viability (CellTiter-Fluor), HEK 293T; type: cell-based; settings: Homo sapiens, 24-72 hrs
Experimental: as §1

HPAF-II = experiment: Cell viability (CellTiter-Fluor), HPAF-II; type: cell-based; settings: Homo sapiens, 24-72 hrs
Experimental: as §1

T47D = experiment: Cell viability (CellTiter-Fluor), T47D; type: cell-based; settings: Homo sapiens, 24-72 hrs
Experimental: as §1

CCND1 = experiment: In vitro transcription-translation (IVTT) reporter assay, CCND1 test sequence; type: biochemical; settings: HeLa S3 lysate, sfGFP/mCherry ratio, 2 hrs at 30° C.
Description: (§3) All reporter constructs have been cloned into the pT7CFE1-CHis plasmid (ThermoFisher #88860) using Gibson assembly procedures (NEB #E2611L). The parental pT7CFE1-CHis plasmid contains an EMCV IRES at the 5′UTR for translation initiation, a multiple-cloning site (MCS) for gene insertion, an optional C-terminal His-epitope tag, and polyA sequence in the 3′UTR to regulate mRNA stability. All reporters are designed to be inserted at the MCS to include a red fluorescent protein (mCherry), P2A self-cleaving peptide which releases the preceding mCherry protein product, and a fusion open reading frame containing a 3×FLAG epitope, a peptide sequence of interest (TEST), and green fluorescent protein (sfGFP).
(§4) Construct Plasmid Preparation: All plasmids are isolated from MACH1 cells (ThermoFisher) grown overnight in ampicillin-containing luria broth, and purified using ZymoPure Express Plasmid Midiprep Kit (Zymo Research). Constructs are sequenced verified and diluted to a working concentration of 110 ng/μL.
(§5) HeLa S3 Lysate Preparation: HeLa S3 cell pellets are acquired from Ipracell/Ipratech (Belgium) and shipped as 4 mL frozen cell pellets on dry ice for storage at −80° C. until use. The procedure for lysate preparation is as follows. Prepare 1× Lysis Buffer, cold and stored on ice:
(§6) Each preparation takes 8 cell pellets (4 ml packed volume each, approximately 1.0×10^9 cells per pellet). Thaw cell pellets from −80° C. on ice for 90 mins. Lay pellets horizontally on top of the ice and rotate every 30 mins to ensure even thawing. Once thawed, add 4 mL of cold lysis buffer to each pellet, and using a serological pipet, gently pipet up and down to break up clumps. Incubate resuspended cells in ice for an additional 30 mins (plunged into ice). During 30 min incubation, rinse and RNase-zap (Ambion) glass dounces (use loose pestle “A”), gently dry and place on ice until needed. Prepare RNase-free Eppendorf tubes for spinning and for batch storage. Add batch labels to 1.5-1.7 mL RNase-free microcentrifuge tubes (labeling scheme below). Each batch will have an extra 1.5-1.7 mL RNase-free microcentrifuge tube for 40 μL of lysate, label the top of this tube (labeling scheme below). After 30 min incubation, transfer all 8 mL of cell pellet to dounce. Cell lysis is complete after douncing 100 times. Aliquot cell lysis into 1.5-1.7 mL temporary-microcentrifuge tubes. Place tubes in centrifuge with “fins” out, and spin at 1,200 xg for 5 mins. After the first spin use a 1 mL pipet to resuspend each tube and repeat spin. This acts as an additional lysis step, is more vigorous and increases lysate yield. During second spin get liquid N2 and a fresh conical tube on ice.
(§7) After spin is complete, transfer supernatant (lysate) from microcentrifuge tubes into the 50 mL conical tube and keep on ice. Repeat steps 10-14 for all other cell pellets until completed. Once all cell lysate has been transferred to the 50 mL conical tube pipet to mix so the solution is homogenous. Transfer 1 mL of lysate into batch-labeled microcentrifuge tubes and flash freeze in liquid nitrogen. Be sure to pipet up and down to mix throughout transfer step. Place all tubes in the […] for long-term storage.
(§8) In vitro transcription-translation assay setup: Each assay includes a master mix containing lysate and shared components, a 96-well plate containing compound titrations for testing, a 96-well DNA plate with reporter constructs to be tested, 96-well skirted PCR plates, and 96-well flat-bottom, black, fluorescent assay plates. […]

HEPG2 = experiment: Cell viability (CellTiter-Fluor), HEPG2; type: cell-based; settings: Homo sapiens, HEPG2, 24-72 hrs
Experimental: as §1

MCL-1 = experiment: In vitro transcription-translation (IVTT) reporter assay, MCL-1 test sequence; type: biochemical; settings: HeLa S3 lysate, sfGFP/mCherry ratio, 2 hrs at 30° C.
Description: as §3, §4, §5, §6, §7, §8

BCL-2 = experiment: In vitro transcription-translation (IVTT) reporter assay, BCL-2 test sequence; type: biochemical; settings: HeLa S3 lysate, sfGFP/mCherry ratio, 2 hrs at 30° C.
Description: as §3, §4, §5, §6, §7, §8

IC50 (MYC)	IC50 (HCC38)	IC50 (MCF7)	IC50 (ALK)	IC50 (NCI-H1915)	IC50 (KRAS G12D)	IC50 (T47D)	IC50 (CCND1)	IC50 (HEPG2)	IC50 (MCL-1)	IC50 (BCL-2)	SMILES	IC50 (KLE)	IC50 (LS411N)	IC50 (KATO-III)	IC50 (MS751)	IC50 (HEK 293T)	IC50 (HPAF-II)
< 10 µM	< 0.25 µM	< 0.25 µM	< 10 µM	< 0.25 µM	< 10 µM	< 0.25 µM	< 10 µM				COc1ccc(C[C@H]2NC[C@H](O)[C@H]2OC(=O)Cc2cscn2)cc1 [V187049]	< 0.25 µM	< 0.25 µM	< 0.25 µM	< 0.25 µM	< 0.25 µM	< 0.25 µM
< 10 µM	0.25 to 1 µM	0.25 to 1 µM	< 10 µM	0.25 to 1 µM	< 10 µM	0.25 to 1 µM					COc1ccc(CC2NCC(O)C2OC(=O)CC2CC2(F)F)cc1 [V187061, 2R,3S,4S)-4-hydroxy-2-[(4-methoxyphenyl)methyl]pyrrolidin-3-yl 2-(2,2-difluorocyclopropyl)acetate]	0.25 to 1 µM	< 0.25 µM	1 to 4 µM	< 0.25 µM	< 0.25 µM	0.25 to 1 µM
< 10 µM	1 to 4 µM	0.25 to 1 µM	< 10 µM	≥ 4 µM	< 10 µM	1 to 4 µM	< 10 µM	0.25 to 1 µM	< 10 µM	< 10 µM	COc1ccc(C[C@H]2NC[C@H](O)[C@H]2OC(=O)C[C@@H]2CCNC2)cc1 [V187690]	1 to 4 µM	0.25 to 1 µM	1 to 4 µM	0.25 to 1 µM	0.25 to 1 µM	≥ 4 µM

SMILES	IC50 (MYC)	IC50 (HCC38)	IC50 (MCF7)	IC50 (ALK)	IC50 (NCI-H1915)	IC50 (KRAS G12D)	IC50 (T47D)	IC50 (CCND1)	IC50 (HEPG2)	IC50 (MCL-1)	IC50 (BCL-2)	IC50 (KLE)	IC50 (LS411N)	IC50 (KATO-III)	IC50 (MS751)	IC50 (HEK 293T)	IC50 (HPAF-II)
COc1ccc(C[C@H]2NC[C@H](O)[C@H]2OC(=O)CC2CC(F)(F)C2)cc1 [V187043, (2R,3S,4S)-4-hydroxy-2-[(4-methoxyphenyl)methyl]pyrrolidin-3-yl 2-(3,3-difluorocyclobutyl)acetate; trifluoroacetic acid]	< 10 µM	< 0.25 µM	< 0.25 µM	< 10 µM	0.25 to 1 µM	< 10 µM	< 0.25 µM					< 0.25 µM	< 0.25 µM	0.25 to 1 µM	< 0.25 µM	< 0.25 µM	0.25 to 1 µM
